Values joined by “and” are separate entries in the source; they are usually repeats but may differ in a detail not shown here. Equal values may be shown once. Toxic doses and inconclusive results are not listed. Rule as the data show it: active = T/C of 150% or more; inactive = T/C below 125%. Peptide text beside a SMILES is read from it. * marks the point of attachment. Boc = CC(C)(C)OC(=O)*; Bn = c1ccc(C*)cc1
Tested on: L1210 leukemia ip in BDF1 mice, survival T/C
Assay: NCI In Vivo Anticancer Drug Screen. Data for tumor model L1210 Leukemia (intraperitoneal) in B6D2F1 (BDF1) mice
Conditions: endpoint: mean survival time, higher = longer survival
Procedure, shortened: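 Read-out is survival time, reported as the treated-group measurement over the vehicle-control measurement.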

[1] = dose: 100.0 mg/kg/injection, schedule: Q01DX001 (ip), vehicle: saline
[2] = dose: 200.0 mg/kg/injection, schedule: Q01DX001 (ip), vehicle: saline
[3] = dose: 400.0 mg/kg/injection, schedule: Q01DX001 (ip), vehicle: saline
[4] = dose: 100.0 mg/kg/injection, schedule: Q01DX009 (ip), vehicle: saline with Tween-80
[5] = dose: 200.0 mg/kg/injection, schedule: Q01DX009 (ip), vehicle: saline with Tween-80

Measured: T/C

COc1c2c(c(OC)c3c(OC)c4ccccc4c(OC)c13)CC=CC2
inactive: dose: 50.0 mg/kg/injection, schedule: Q01DX005 (ip), vehicle: water 94 % of control | dose: 100.0 mg/kg/injection, schedule: Q01DX005 (ip), vehicle: water 87 % of control | dose: 200.0 mg/kg/injection, schedule: Q01DX005 (ip), vehicle: water 89 % of control | dose: 400.0 mg/kg/injection, schedule: Q01DX005 (ip), vehicle: water 87 % of control

Cc1nc(Cl)ncc1N
inactive: [1] 100 % of control | [2] 98 % of control | [3] 98 % of control

COC(=O)CNC(=O)C(Cc1ccc(OCc2ccccc2)cc1)NC(=O)C(CO)NC(=O)OC(C)(C)C (stereo not drawn) (Boc-Ser-Tyr(Bn)-Gly-OMe; configuration not given here)
inactive: [4] 102 % of control | [5] 98 % of control | dose: 400.0 mg/kg/injection, schedule: Q01DX009 (ip), vehicle: saline with Tween-80 88 % of control

COc1cccc(NC(=S)NCCO)c1
inactive: dose: 100.0 mg/kg/injection, schedule: Q04DX003 (ip), vehicle: Klucel (hydroxypropylcellulose) (HPC) 103 % of control | dose: 200.0 mg/kg/injection, schedule: Q04DX003 (ip), vehicle: Klucel (hydroxypropylcellulose) (HPC) 110 % of control | dose: 400.0 mg/kg/injection, schedule: Q04DX003 (ip), vehicle: Klucel (hydroxypropylcellulose) (HPC) 110 % of control

Oc1ccc(O)c2c1C1C=CC2CC1
inactive: [1] 96 % of control | [2] 105 % of control | [3] 98 % of control

O=C(/C=C(/C(=O)c1ccccc1)N1CC1)c1ccccc1
inactive: dose: 50.0 mg/kg/injection, schedule: Q01DX001 (ip), vehicle: carboxymethylcellulose (CMC) 113 % of control | dose: 100.0 mg/kg/injection, schedule: Q01DX001 (ip), vehicle: carboxymethylcellulose (CMC) 105 % of control | dose: 200.0 mg/kg/injection, schedule: Q01DX001 (ip), vehicle: carboxymethylcellulose (CMC) 97 % of control | dose: 400.0 mg/kg/injection, schedule: Q01DX001 (ip), vehicle: carboxymethylcellulose (CMC) 103 % of control

CCOC(=O)C(=O)Nc1ccccc1C(=O)O
inactive: dose: 100.0 mg/kg/injection, schedule: Q04DX009 (ip), vehicle: saline with Tween-80 96 % of control | dose: 200.0 mg/kg/injection, schedule: Q04DX009 (ip), vehicle: saline with Tween-80 103 % of control | dose: 400.0 mg/kg/injection, schedule: Q04DX009 (ip), vehicle: saline with Tween-80 102 % of control

C[N+]1=C(C(=O)c2ccc(O)cc2)c2ccc(O)cc2CC1
inactive: dose: 50.0 mg/kg/injection, schedule: Q01DX001 (ip), vehicle: saline 107 % of control | [1] 106 % of control | [2] 119 % of control

CC(=O)C(CCl)C(C)=O
inactive: dose: 50.0 mg/kg/injection, schedule: Q01DX001 (ip), vehicle: other 102 % of control | dose: 100.0 mg/kg/injection, schedule: Q01DX001 (ip), vehicle: other 96 % of control | dose: 200.0 mg/kg/injection, schedule: Q01DX001 (ip), vehicle: other 96 % of control | dose: 400.0 mg/kg/injection, schedule: Q01DX001 (ip), vehicle: other 96 % of control

CCCCCCCCCCSCCO
inactive: [1] 102 % of control | [2] 102 % of control | [3] 97 % of control

O=C(OC1COC(SCc2ccccc2)C(OC(=O)c2ccccc2)C1OC(=O)c1ccccc1)c1ccccc1 (centres undefined)
inactive: [1] 98 % of control | [2] 110 % of control | [3] 97 % of control

CCCCCC/C=C/C1CC(=O)OC1=O (centres undefined)
inactive: dose: 25.0 mg/kg/injection, schedule: Q01DX009 (ip), vehicle: saline with Tween-80 100 % of control | dose: 50.0 mg/kg/injection, schedule: Q01DX009 (ip), vehicle: saline with Tween-80 88 % of control | dose: 50.0 mg/kg/injection, schedule: Q04DX003 (ip), vehicle: saline with Tween-80 98 % of control | [4] 100 % of control | dose: 100.0 mg/kg/injection, schedule: Q04DX003 (ip), vehicle: saline with Tween-80 101 % of control and 112 % of control | [5] 97 % of control | dose: 200.0 mg/kg/injection, schedule: Q04DX003 (ip), vehicle: saline with Tween-80 95 % of control and 101 % of control | dose: 400.0 mg/kg/injection, schedule: Q04DX003 (ip), vehicle: saline with Tween-80 103 % of control

From PubChem BioAssay AID248 (DTP/NCI, 2004)
